Laboratory results published in PubChem BioAssay (NCI).
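How tested: cells in 96-well plates exposed to compound for 48 hours at five concentrations. At the TGI there is no net growth.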

Experiments:
Assay in all cases: DTP human tumour cell line panel, 48 h
[1] = test system: RXF 393 renal
[2] = test system: MDA-MB-231 breast
[3] = test system: OVCAR-3 ovarian
[4] = test system: HOP-62 NSCLC
[5] = test system: SR leukemia
[6] = test system: K-562 leukemia
[7] = test system: SK-MEL-5 melanoma
[8] = test system: SNB-19 CNS
[9] = test system: MOLT-4 leukemia
[10] = test system: MCF7 breast
[11] = test system: A549 NSCLC
[12] = test system: NCI/ADR-RES ovarian
[13] = test system: SF-539 CNS
[14] = test system: U251 CNS
[15] = test system: ACHN renal
[16] = test system: HT29 colon
[17] = test system: PC-3 prostate
[18] = test system: SN12C renal
[19] = test system: HL-60(TB) leukemia
[20] = test system: RPMI-8226 leukemia
[21] = test system: SK-OV-3 ovarian
[22] = test system: 786-0 renal
[23] = test system: TK-10 renal
[24] = test system: UO-31 renal
[25] = test system: OVCAR-4 ovarian
[26] = test system: HCT-116 colon
[27] = test system: DU-145 prostate
[28] = test system: HS 578T breast
[29] = test system: OVCAR-8 ovarian
[30] = test system: CAKI-1 renal
[31] = test system: SF-268 CNS
[32] = test system: HCT-15 colon
[33] = test system: SK-MEL-2 melanoma
[34] = test system: OVCAR-5 ovarian
[35] = test system: NCI-H460 lung
[36] = test system: KM12 colon
[37] = test system: NCI-H522 lung
[38] = test system: MALME-3M melanoma
[39] = test system: M14 melanoma
[40] = test system: NCI-H23 lung
[41] = test system: A498 renal
[42] = test system: IGROV1 ovarian
[43] = test system: COLO 205 colon
[44] = test system: UACC-257 melanoma
[45] = test system: UACC-62 melanoma
[46] = test system: SK-MEL-28 melanoma
[47] = test system: MDA-MB-435
[48] = test system: LOX IMVI melanoma
[49] = test system: SF-295 CNS
[50] = test system: NCI-H226 lung
[51] = test system: T-47D breast
[52] = test system: MDA-N
[53] = test system: EKVX NSCLC
[54] = test system: CCRF-CEM leukemia
[55] = test system: HCC-2998 colon
[56] = test system: SNB-75 CNS
[57] = test system: HOP-92 NSCLC
[58] = test system: SW-620 colon

In the case of O=[N+]([O-])C(=C1NCCN1)C(Cl)=C(Cl)Cl, the TGI [1] is reported as greater than 100 µM, the TGI [2] is reported as greater than 100 µM and the TGI [3] is reported as greater than 100 µM. The TGI [4] was greater than 100 µM, the TGI [5] was greater than 100 µM and the TGI [6] was greater than 100 µM. It also gave a TGI [7] greater than 100 µM, a TGI [8] greater than 100 µM and a TGI [9] greater than 100 µM. The TGI [10] was greater than 100 µM, the TGI [11] was greater than 100 µM and the TGI [12] was greater than 100 µM. It also gave a TGI [13] greater than 100 µM, a TGI [14] greater than 100 µM and a TGI [15] greater than 100 µM. For the same compound, the TGI [16] was greater than 100 µM, the TGI [17] was greater than 100 µM and the TGI [18] was greater than 100 µM. For the same compound, the TGI [19] was greater than 100 µM, the TGI [20] was greater than 100 µM and the TGI [21] was greater than 100 µM. For the same compound, the TGI [22] was greater than 100 µM, the TGI [23] was greater than 100 µM and the TGI [24] was greater than 100 µM. The TGI [25] was greater than 100 µM, the TGI [26] was greater than 100 µM and the TGI [27] was greater than 100 µM. For the same compound, the TGI [28] was greater than 100 µM, the TGI [29] was greater than 100 µM and the TGI [30] was greater than 100 µM. The TGI [31] was greater than 100 µM, the TGI [32] was greater than 100 µM and the TGI [33] was greater than 100 µM. It also gave a TGI [34] greater than 100 µM, a TGI [35] greater than 100 µM and a TGI [36] greater than 100 µM. It also gave a TGI [37] greater than 100 µM, a TGI [38] greater than 100 µM and a TGI [39] greater than 100 µM. The TGI [40] was greater than 100 µM, the TGI [41] was greater than 100 µM and the TGI [42] was greater than 100 µM. The TGI [43] was greater than 100 µM, the TGI [44] was greater than 100 µM and the TGI [45] was greater than 100 µM. For the same compound, the TGI [46] was greater than 100 µM, the TGI [47] was greater than 100 µM and the TGI [48] was greater than 100 µM. It also gave a TGI [49] greater than 100 µM, a TGI [50] greater than 100 µM and a TGI [51] greater than 100 µM. For the same compound, the TGI [52] was greater than 100 µM, the TGI [53] was greater than 100 µM and the TGI [54] was greater than 100 µM. It also gave a TGI [55] greater than 100 µM.

CCCCCCCCCCOC1C(C(O)CNCCCN(C)C)OC2OC3(CCCCC3)OC21 (stereo unspecified) gave a TGI [1] of 3.7 µM, a TGI [2] of 3.31 µM and a TGI [56] of 0.681 µM. For the same compound, the TGI [3] was 3.59 µM, the TGI [4] was 4.04 µM and the TGI [5] was 0.739 µM. For the same compound, the TGI [6] was 3.47 µM, the TGI [7] was 3.34 µM and the TGI [8] was 3.24 µM. The TGI [9] was 3.87 µM, the TGI [10] was 3.7 µM and the TGI [11] was 11.7 µM. For the same compound, the TGI [12] was 8.87 µM, the TGI [14] was 3.23 µM and the TGI [15] was 8.09 µM. The TGI [16] was 3.12 µM, the TGI [17] was 6.7 µM and the TGI [18] was 5.19 µM. It also gave a TGI [19] of 3.59 µM, a TGI [20] of 4.37 µM and a TGI [21] of 13.9 µM. The TGI [22] was 3.37 µM, the TGI [23] was 6.55 µM and the TGI [24] was 4.45 µM. For the same compound, the TGI [25] was 4.25 µM, the TGI [26] was 3.53 µM and the TGI [27] was 9.24 µM. It also gave a TGI [28] of 6.53 µM, a TGI [29] of 4.18 µM and a TGI [30] of 4.21 µM. The TGI [31] was 5.12 µM, the TGI [32] was 3.21 µM and the TGI [33] was 4 µM. The TGI [34] was 3.71 µM, the TGI [35] was 3.44 µM and the TGI [36] was 2.91 µM. For the same compound, the TGI [37] was 3.56 µM, the TGI [38] was 3.61 µM and the TGI [39] was 3.55 µM. The TGI [40] was 3.01 µM, the TGI [57] was 5.33 µM and the TGI [42] was 3.82 µM. For the same compound, the TGI [43] was 3.43 µM, the TGI [44] was 10.8 µM and the TGI [45] was 4.53 µM. It also gave a TGI [46] of 3.1 µM, a TGI [47] of 3.56 µM and a TGI [58] of 3.24 µM. The TGI [48] was 2.68 µM, the TGI [49] was 3.52 µM and the TGI [50] was 36.7 µM. It also gave a TGI [51] of 5.42 µM, a TGI [52] of 3.37 µM and a TGI [53] of 7.6 µM. The TGI [54] was 3.64 µM and the TGI [55] was 4.46 µM.
